In patent publication US20050090522A1 (priority 2001, published 2005):
Like-named read-outs stand apart in the source and are kept apart here.

Legend:
HIV-1 = HIV-1 single-round infectious luciferase reporter virus (pseudotype) assay in HeLa CD4 CCR5 cells; assay type: cell-based
Method in brief: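 HeLa CD4 CCR5 cells (5×10^4/well, DMEM + 10% FBS) were treated with compound (final <10 μM) and infected with single-round luciferase reporter virus made in 293 cells, at MOI ~0.01. Luciferase was read 72 h post infection. EC50 came from 10-concentration percent-inhibition curves fitted to a four-parameter logistic model.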

HeLa cells = assay: Cytotoxicity assay in HeLa cells (MTT dye reduction, CC50)
Method: • Virus production—Human embryonic Kidney cell line, 293, propagated in Dulbecco's Modified Eagle Medium (Life Technologies, Gaithersburg, Md.) containing 10% fetal Bovine serum (FBS, Sigma, St. Louis, Mo.). • Virus infection—Human epithelial cell line, HeLa, expressing the HIV-1 receptors CD4 and CCR^5 was propagated in Dulbecco's Modified Eagle Medium (Life Technologies, Gaithersburg, Md.) containing 10% fetal Bovine serum (FBS, Sigma, St. Louis, Mo.) and supplemented with 0.2 mg/mL Geneticin (Life Technologies, Gaithersburg, Md.) and 0.4 mg/mL Zeocin (Invitrogen, Carlsbad, Calif.). […] Transfections were performed using lipofectAMINE PLUS reagent as described by the manufacturer (Life Technologies, Gaithersburg, Md.). Experiment • 1. Compound was added to HeLa CD4 CCR5 cells plated in 96 well plates at a cell density of 5×10^4 cells per well in 100 μl Dulbecco's Modified Eagle Medium containing 10% fetal Bovine serum at a concentration of […]. • 2. 100 μl of single-round infectious reporter virus in Dulbecco's Modified Eagle Medium was then added to the plated cells and compound at an approximate multiplicity of infection (MOI) of 0.01, resulting in a final volume of 200 μl per well and a final compound concentration of <10 μM. • 3. Samples were harvested 72 h after infection. • 4. Viral infection was monitored by measuring luciferase expression from viral DNA in the infected cells using a luciferase reporter gene assay kit (Roche Molecular Biochemicals, Indianapolis, Ind.). Infected cell supernatants were removed and 50 μl of Dulbecco's Modified Eagle Medium (without phenol red) and 50 μl of luciferase assay reagent reconstituted as described by the manufacturer (Roche Molecular Biochemicals, Indianapolis, Ind.) was added per well. Luciferase activity was then quantified by measuring luminescence using a Wallac microbeta scintillation counter. • 5. […] An EC50 provides a method for comparing the antiviral potency of the compounds of this invention. The effective concentration for fifty percent inhibition (EC50) was calculated with the Microsoft Excel Xlfit curve fitting software. For each compound, curves were generated from percent inhibition calculated at 10 different concentrations by using a four paramenter logistic model (model 205). Table 1 is the key for the data in Tables 2-4. Cytoxicity assays were conducted with the same HeLa using methodology well known in the art.
(§1) For accuracy, the determined measure of viral inhibition is an EC50; but the minimum plasma concentrations which should be maintained in a patient is generally believed to be at least four or five fold higher. […] Lower is better. • 4) Estimating potential exposure in man by measuring parameters such as AUC and rate of clearance by oral and iv dosing in rats. High exposure and low clearance was desired.

[1] = Metabolic stability in pooled human liver microsomes (HLM); settings: 3 μM drug
Method: Metabolic Stability Studies of compounds in Liver Microsomes. The metabolic stability of compounds were investigated in pooled liver microsomes from humans. The human liver microsomes were obtained from BD Gentest (Lot #16, Woburn, Mass.) with a protein concentration of 20 mg/ml and a total cytochrome P450 (CYP) concentration of 0.55 nmol/mg protein. A stock solution of drug was prepared in acetonitrile at 1 mM. […] The incubation media consisted of potassium phosphate buffer (0.1 M, pH 7.4), liver microsomes (final concentration 0.9 mg/ml), magnesium chloride (0.033 mM), and a NADPH-regenerating system. […] The test compound was pre-incubated in the media for 2 min. The reaction was initiated by the addition of the cofactors. The incubation was carried out at 37° C. for 10 min. The reaction was terminated by drawing an aliquot of 100 μL from the incubation and adding into 200 μL of acetonitrile containing a reference compound as an […] analytical standard. Following vortex-mixing and centrifugation, an aliquot of 10 μL of the supernatant was analyzed by LC/MS.
GUIDELINES can be used to categorized test substances as low, intermediate or highly cleared compounds.
as §1
The stability of compounds were also evaluated to determine metabolic stability when incubated in in vitro preparations of human liver microsomes (HLM). This is one commonly used predictive system for evaluating the potential for human metabolism and projecting clearance rates in man. Compounds with low clearance rates were most desireable.

[2] = Human immunodeficiency virus 1, HeLa-CD4/CCR5, read-out: EC50 Group from Table 1, Table 2-1, HeLa CD4 CCR5 cells, single-round luciferase reporter virus
[3] = Human immunodeficiency virus 1, HeLa-CD4/CCR5, read-out: EC50 category, HIV-1 single-round reporter virus assay, category 1/2/3 per Table A1 key
[4] = cytotoxicity, Yes = CC50 above 100 uM, No = not
[5] = pooled human liver microsomes, Low/Intermediate/High
[6] = Human immunodeficiency virus 1, HeLa-CD4/CCR5, read-out: EC50 Group from TABLE 1, HeLa CD4 CCR5 cells, single-round infectious luciferase reporter virus
[7] = Human immunodeficiency virus 1, HeLa-CD4/CCR5, read-out: EC50 category, initial pseudotype assay, key in Table A1
[8] = HeLa cells, six days with drug, MTT
[9] = 0.9 mg/ml microsomes, 37° C., 10 min

| SMILES | EC50 (HIV-1; [2]) | EC50 (HIV-1; [3]) | CC50 > 100 uM (HeLa cells; [4]) | HLM predicted human clearance class [1, 5] | EC50 (HIV-1; [6]) | EC50 (HIV-1; [7]) | CC50 > 100 uM (HeLa cells; [8]) | HLM predicted human clearance class [1, 9] | EC50 (HIV-1; Human immunodeficiency virus 1, HeLa-CD4/CCR5, 72 h, read-out: EC50 Group from Table 1, HeLa CD4 CCR5 cells, luciferase reporter virus, harvested 72 h after infection) |
| --- | --- | --- | --- | --- | --- | --- | --- | --- | --- |
| COc1cnc(-n2ccc(C)n2)c2[nH]cc(C(=O)C(=O)N3CCN(C(=O)c4ccccc4)[C@H](C)C3)c12 [Example 241, (R)-1-benzoyl-2-methyl-4-[(4-methoxy-7-(3-methyl-pyrazol-1-yl)-6-azaindol-3-yl)-oxoacetyl]piperazine] | < 1000 nM | < 0.2 nM | Yes | Low (0-0.100) |  |  |  |  |  |
| COc1cnc(-n2ccc(N)n2)c2[nH]cc(C(=O)C(=O)N3CCN(C(=O)c4ccccc4)CC3)c12 [Example 251, 1-benzoyl-4-[(4-methoxy-7-(3-amino-pyrazol-1-yl)-6-azaindol-3-yl)-oxoacetyl]piperazine] |  | < 0.2 nM | Yes | Low (0-0.100) | < 1000 nM |  |  |  |  |
| COc1cnc(-n2ccnn2)c2[nH]cc(C(=O)C(=O)N3CCN(C(=O)c4ccccc4)[C@H](C)C3)c12 [Example 255, (R)-1-benzoyl-2-methyl-4-[(4-methoxy-7-(1,2,3-triazol-1-yl)-6-azaindol-3-yl)-oxoacetyl]piperazine] | < 1000 nM | < 0.2 nM | Yes | Intermediate (0.101-0.200) |  |  |  |  |  |
| COc1cnc(-n2cnc(N)n2)c2[nH]cc(C(=O)C(=O)N3CCN(C(=O)c4ccccc4)[C@H](C)C3)c12 [Example 258, (R)-1-benzoyl-2-methyl-4-[(4-methoxy-7-(3-amino-1,2,4-triazol-1-yl)-6-azaindol-3-yl)-oxoacetyl]piperazine] | < 1000 nM | < 0.2 nM | Yes | Low (0-0.100) |  |  |  |  |  |
| CCNC(=O)c1ncn(-c2ncc(OC)c3c(C(=O)C(=O)N4CCN(C(=O)c5ccccc5)CC4)c[nH]c23)n1 [Example 273, 1-benzoyl-4-[(4-methoxy-7-(3-ethylaminocarbonyl-1,2,4-triazol-1-yl)-6-azaindol-3-yl)-oxoacetyl]piperazine] |  | < 0.2 nM | Yes | Low (0-0.100) | < 1000 nM |  |  |  |  |
| CNC(=O)c1ncn(-c2ncc(OC)c3c(C(=O)C(=O)N4CCN(C(=O)c5ccccc5)CC4)c[nH]c23)n1 [Example 274, 1-benzoyl-4-[(4-rnethoxy-7-(3-methylaminocarbonyl-1,2,4-triazol-1-yl)-6-azaindol-3-yl)-oxoacetyl]piperazine] |  | < 0.2 nM | Yes | Low (0-0.100) | < 1000 nM |  |  |  |  |
| COc1cnc(-n2cnc(C(=O)N(C)C)n2)c2[nH]cc(C(=O)C(=O)N3CCN(C(=O)c4ccccc4)CC3)c12 [Example 275, 1-benzoyl-4-[(4-methoxy-7-(3-dimethylaminocarbonyl-1,2,4-triazol-1-yl)-6-azaindol-3-yl)-oxoacetyl]piperazine] |  | < 0.2 nM | Yes | Low (0-0.100) | < 1000 nM |  |  |  |  |
| O=C(C(=O)N1CCN(C(=O)c2ccccc2)CC1)c1c[nH]c2c(-c3c[nH]nn3)ncc(F)c12 [Example 299] |  | < 0.2 nM | No | Low (0-0.100) | < 1000 nM |  |  |  |  |
| Cc1noc(-c2ncc(F)c3c(C(=O)C(=O)N4CCN(C(=O)c5ccccc5)CC4)c[nH]c23)n1 [Example 300] |  | 0.2 to 1000 nM | Yes | Low (0-0.100) | < 1000 nM |  |  |  |  |
| Cc1ccnn1-c1ncc(F)c2c(C(=O)C(=O)N3CCN(C(=O)c4ccccc4)CC3)c[nH]c12 [Example 312] |  | 0.2 to 1000 nM | Yes | Low (0-0.100) | < 1000 nM |  |  |  |  |
| Nc1ncn(-c2ncc(F)c3c(C(=O)C(=O)N4CCN(C(=O)c5ccccc5)CC4)c[nH]c23)n1 [Example 313] |  | < 0.2 nM | Yes | Low (0-0.100) | < 1000 nM |  |  |  |  |
| C[C@@H]1CN(C(=O)C(=O)c2c[nH]c3c(-n4ccnn4)ncc(F)c23)CCN1C(=O)c1ccccc1 [Example 314] | < 1000 nM | < 0.2 nM | Yes | Low (0-0.100) |  |  |  |  |  |
| Cc1ncn(-c2ncc(F)c3c(C(=O)C(=O)N4CCN(C(=O)c5ccccc5)[C@H](C)C4)c[nH]c23)n1 [Example 315] | < 1000 nM | < 0.2 nM | Yes | Low (0-0.100) |  |  |  |  |  |
| COc1cnc(-n2cnc(C)c2)c2[nH]cc(C(=O)C(=O)N3CCN(C(=O)c4ccccc4)CC3)c12 [Example 318] |  | 0.2 to 1000 nM | Yes | Low (0-0.100) | < 1000 nM |  |  |  |  |
| CCc1ncn(-c2ncc(OC)c3c(C(=O)C(=O)N4CCN(C(=O)c5ccccc5)CC4)c[nH]c23)n1 [Example 321] |  | < 0.2 nM | Yes | Low (0-0.100) | < 1000 nM |  |  |  |  |
| COCc1ncn(-c2ncc(OC)c3c(C(=O)C(=O)N4CCN(C(=O)c5ccccc5)[C@H](C)C4)c[nH]c23)n1 [Example 324] | < 1000 nM | < 0.2 nM | Yes | Low (0-0.100) |  |  |  |  |  |
| COc1cnc(-n2cc(C)nn2)c2[nH]cc(C(=O)C(=O)N3CCN(C(=O)c4ccccc4)CC3)c12 [Example 325] |  | < 0.2 nM | Yes | Low (0-0.100) | < 1000 nM |  |  |  |  |
| COc1cnc(-n2ncc(C)n2)c2[nH]cc(C(=O)C(=O)N3CCN(C(=O)c4ccccc4)CC3)c12 [Example 327] |  |  |  |  | < 1000 nM | 0.2 to 1000 nM | Yes | Low (0-0.100) |  |
| COc1cnc(-n2ncc(C)n2)c2[nH]cc(C(=O)C(=O)N3CCN(C(=O)c4ccccc4)[C@H](C)C3)c12 [Example 328] | < 1000 nM |  |  |  |  | < 0.2 nM | Yes | Low (0-0.100) |  |
| COc1cnc(-c2nc(C)n[nH]2)c2[nH]cc(C(=O)C(=O)N3CCN(C(=O)c4ccccc4)CC3)c12 [Example 342] |  | < 0.2 nM | Yes | Low (0-0.100) | < 1000 nM |  |  |  |  |
| Cc1ccn(-c2ccnc3c(C(=O)C(=O)N4CCN(C(=O)c5ccccc5)[C@H](C)C4)c[nH]c23)n1 [Example 356] |  | 0.2 to 1000 nM | Yes | Low (0-0.100) |  |  |  |  | < 1000 nM |
